One block for each molecule: values may come before it.
Legend:
[1] = tested on: CV-1P (African monkey green kidney fibroblasts cells); assay: In vitro transfection of plasmid DNA, β-galactosidase activity per well; type: cell-based; details: CVI-P
Procedure: Transfer of plasmid DNA by various compounds was investigated by using CV-1P (African monkey green kidney fibroblasts cells) and D407 (human retinal pigment epithelial) cells.
The cells were cultured in Dulbecco's modified Eagle's medium (DMEM, Gibco), supplemented with 10% fetal bovine serum (FBS), penicillin/streptomycin (100 units/ml and 100 μg/ml respectively) and 2 mM L-glutamine for D 407 cell line. Cell cultures were maintained at 37° C. in a 7% CO2/air incubator. The cells were collected, counted and seeded in growth medium (100 μl) into 96-well culture plate, 20 000 cells per well. One day later the medium was replaced with fresh medium without serum (150 μl)
In the case of confluent CV1-P cells the medium (with of without serum) was changed on fourth day of cell growth before the transfection.
The complexes at different derivative/DNA charge ratios for transfection procedure were prepared just before use in 50 mM MES—50 mM HEPES—75 mM NaCl buffer, pH 7.2 in separate 96 well plates. One hour after changing the serum-free medium with 10% serum the complexes were added to the cells at […]. Dose of DNA per well was 0.6 μg. After 5 h the complexes were removed, the cells were washed with PBS, and the normal growth medium was added. After 45 h of incubation at 37° C. the cells were lysed with 2% Triton X 100, twice deep frozen and the β-galactosidase activity in each well was determined spectrofotometrically with ELx800 automated microplate reader (Bio-Tex Instruments Inc., Winooski, Vt. USA) by monitoring the hydrolysis of o-nitrophenylgalactopyranoside (oNPG) at 405 nm. Purified β-galactosidase from E.coli was used to construct a standard curve and to calculate […] activity in the transfected cells. […] Transfection efficiencies are given as percentage in comparison to transfection efficiency of Lipofectin^R.

[2] = tested on: D407 (human retinal pigment epithelial) cells; assay: as above; type: cell-based; details: D 407
Procedure: The complexes at different derivative/DNA charge ratios for transfection procedure were prepared just before use in 50 mM MES—50 mM HEPES—75 mM NaCl buffer, pH 7.2 in separate 96 well plates. One hour after changing the serum-free medium with 10% serum the complexes were added to the cells at 370C. Dose of DNA per well was 0.6 μg. After 5 h the complexes were removed, the cells were washed with PBS, and the normal growth medium was added. After 45 h of incubation at 37° C. the cells were lysed with 2% Triton X 100, twice deep frozen and the β-galactosidase activity in each well was determined spectrofotometrically with ELx800 automated microplate reader (Bio-Tex Instruments Inc., Winooski, Vt. USA) by monitoring the hydrolysis of o-nitrophenylgalactopyranoside (oNPG) at 405 nm. Purified β-galactosidase from E.coli was used to construct a standard curve and to calculate 9-galactosidase activity in the transfected cells. […] Transfection efficiencies are given as percentage in comparison to transfection efficiency of Lipofectin^R.

D 407 cells = assay: Cytotoxicity of amphiphile/DNA complexes, percentage of survived cells; type: cell-based, human; parameters: concentration or dose not given beside the values
plasmid DNA = assay: DNA condensation/complexation, EtBr displacement assay; type: binding
Procedure: The ability of the cationic amphiphiles to condense DNA was assessed with an EtBr displacement assay. Briefly, in 96 well plates plasmid DNA (0.6 μg per well) was reacted with 0.002% EtBr in 20 mM HEPES—150 mM NaCl buffer, pH 7.4 and fluorescence intensity was measured at 530 nm (excitation) and 590 nm (emission). Intercalation of EtBr molecules between the base pairs of the DNA double helix results in increased fluorescence signal. Immediately thereafter, the cationic liposomes were added to form complexes at different +/−charge ratios and the quenching of fluorescence intensity of EtBr was monitored. Condensation of DNA upon complexation with liposomes results in the displacement of EtBr from DNA and in decreased fluorescence signal. Fluorescence was measured using FL 500 microplate fluorescence reader (Bio-Tek Instruments Inc., Winooski, Vt., USA).
The values are expressed as percentage of the maximum fluorescence signal when EtBr bound to DNA in the absence of an amphiphile. Each data point is from at least triplicate experiment ±S.D.

CVI-P cells = assay: Cytotoxicity of amphiphile/DNA complexes, percentage of survived cells
[3] = amphiphile/DNA +/− charge ratio 0.5
[4] = amphiphile/DNA +/− charge ratio 1
[5] = amphiphile/DNA +/− charge ratio 2
[6] = amphiphile/DNA +/− charge ratio 4
[7] = amphiphile/DNA +/− charge ratio 8

SMILES: CCOC(=O)C1=C(C)NC(C)=C(C(=O)OCC)C1c1ccc[n+](-c2ccc([N+](=O)[O-])cc2[N+](=O)[O-])c1.Cl.[Cl-]
melting point: 178 to 180 °C

SMILES: CC1=C(C(=O)OCc2ccc([N+](=O)[O-])cc2)C(c2ccc[n+](C)c2)C(C(=O)OCc2ccc([N+](=O)[O-])cc2)=C(C)N1.I.[I-]
melting point: 202 to 203 °C

SMILES: Br.CCCCCCCCCCCCCCCC[n+]1cccc(C2C(C(=O)OCc3ccc([N+](=O)[O-])cc3)=C(C)NC(C)=C2C(=O)OCc2ccc([N+](=O)[O-])cc2)c1.[Br-]
melting point: 89 to 93 °C

SMILES: Br.CCCCCCCCCCCCCCCC[n+]1ccc(C2C(C(=O)OCC)=C(C)NC(C)=C2C(=O)OCC)cc1.[Br-]
melting point: 95 to 98 °C

SMILES: Br.CCCCCCCCCCCCCCCC[n+]1ccccc1C1C(C(=O)OCC)=C(C)NC(C)=C1C(=O)OCC.[Br-]
melting point: 117 to 121 °C

SMILES: Br.CCOC(=O)C[n+]1cccc(C2C(C(=O)OC3CC(C)CCC3C(C)C)=C(C)NC(C)=C2C(=O)OC2CC(C)CCC2C(C)C)c1.[Br-] (centres unmarked)
melting point: 180 °C (dec.)

SMILES: Br.CCOC(=O)C[n+]1ccccc1C1C(C(=O)OCC)=C(C)NC(C)=C1C(=O)OCC.[Br-]
melting point: 197 to 199 °C

SMILES: CCCCCCCCCCCCOC(=O)C1=C(C)NC(C)=C(C(=O)OCCCCCCCCCCCC)C1c1ccc[n+](C)c1.I.[I-] [V, 3′,5′-Bis(dodecyloxycarbonyl)-1′,4′-dihydro-1,2′,6′-trimethyl-3,4′-bipyridinium iodide]
transfection efficiency [1, 3]: 0,48 β-galactosidase units per well | transfection efficiency [1, 4]: 0,69 β-galactosidase units per well | transfection efficiency [1, 5]: 27,19 β-galactosidase units per well | transfection efficiency [1, 6]: 5,95 β-galactosidase units per well | transfection efficiency [1, 7]: 1,4 β-galactosidase units per well | transfection efficiency [2, 3]: 0,26 β-galactosidase units per well | transfection efficiency [2, 4]: 8,10 β-galactosidase units per well | transfection efficiency [2, 5]: 8,78 β-galactosidase units per well | transfection efficiency [2, 6]: 0,55 β-galactosidase units per well | transfection efficiency [2, 7]: 0,33 β-galactosidase units per well | cytotoxicity as a percentage of survived cells (D 407 cells; [3]): 85,27% | cytotoxicity as a percentage of survived cells (D 407 cells; [4]): 66,05% | cytotoxicity as a percentage of survived cells (D 407 cells; [5]): 55,61% | cytotoxicity as a percentage of survived cells (D 407 cells; [6]): 9,14% | cytotoxicity as a percentage of survived cells (D 407 cells; [7]): 0,28% | complexation, percentage of the maximum fluorescence signal when EtBr bound to DNA in the absence of an amphiphile (plasmid DNA; [3]): 88,8% | complexation, percentage of the maximum fluorescence signal when EtBr bound to DNA in the absence of an amphiphile (plasmid DNA; [4]): 80,33% | complexation, percentage of the maximum fluorescence signal when EtBr bound to DNA in the absence of an amphiphile (plasmid DNA; [5]): 75,17% | complexation, percentage of the maximum fluorescence signal when EtBr bound to DNA in the absence of an amphiphile (plasmid DNA; [6]): 71,93% | complexation, percentage of the maximum fluorescence signal when EtBr bound to DNA in the absence of an amphiphile (plasmid DNA; [7]): 72,4% | cytotoxicity as a percentage of survived cells (CVI-P cells; [3]): 100,21% | cytotoxicity as a percentage of survived cells (CVI-P cells; [4]): 87,18% | cytotoxicity as a percentage of survived cells (CVI-P cells; [5]): 71,79% | cytotoxicity as a percentage of survived cells (CVI-P cells; [6]): 40,55% | cytotoxicity as a percentage of survived cells (CVI-P cells; [7]): 8,67%

SMILES: CCCCCCCCCCCCCCOC(=O)C1=C(C[n+]2ccccc2)NC(C[n+]2ccccc2)=C(C(=O)OCCCCCCCCCCCCCC)C1c1ccccc1.[Br-].[Br-] [XXIV, 1,1′-{[1,4-Dihydro-4-phenyl-3,5-bis(tetradecyloxycarbonyl)-pyridine-2,6-diyl]dimethylene}bispyridinium dibromide]
transfection efficiency [1, 3]: 0,63 β-galactosidase units per well | transfection efficiency [1, 4]: 2,48 β-galactosidase units per well | transfection efficiency [1, 5]: 15,46 β-galactosidase units per well | transfection efficiency [1, 6]: 47,78 β-galactosidase units per well | transfection efficiency [1, 7]: 9,48 β-galactosidase units per well | transfection efficiency [2, 3]: 0,20 β-galactosidase units per well | transfection efficiency [2, 4]: 0,44 β-galactosidase units per well | transfection efficiency [2, 5]: 0,53 β-galactosidase units per well | transfection efficiency [2, 6]: 15,04 β-galactosidase units per well | transfection efficiency [2, 7]: 3,61 β-galactosidase units per well | cytotoxicity as a percentage of survived cells (D 407 cells; [3]): 97,59% | cytotoxicity as a percentage of survived cells (D 407 cells; [4]): 88,59% | cytotoxicity as a percentage of survived cells (D 407 cells; [5]): 98,83% | cytotoxicity as a percentage of survived cells (D 407 cells; [6]): 86,99% | cytotoxicity as a percentage of survived cells (D 407 cells; [7]): 51,24% | complexation, percentage of the maximum fluorescence signal when EtBr bound to DNA in the absence of an amphiphile (plasmid DNA; [3]): 78,91% | complexation, percentage of the maximum fluorescence signal when EtBr bound to DNA in the absence of an amphiphile (plasmid DNA; [4]): 63,92% | complexation, percentage of the maximum fluorescence signal when EtBr bound to DNA in the absence of an amphiphile (plasmid DNA; [5]): 54,5% | complexation, percentage of the maximum fluorescence signal when EtBr bound to DNA in the absence of an amphiphile (plasmid DNA; [6]): 50,0% | complexation, percentage of the maximum fluorescence signal when EtBr bound to DNA in the absence of an amphiphile (plasmid DNA; [7]): 49,62% | cytotoxicity as a percentage of survived cells (CVI-P cells; [3]): 96,17% | cytotoxicity as a percentage of survived cells (CVI-P cells; [4]): 98,12% | cytotoxicity as a percentage of survived cells (CVI-P cells; [5]): 86,72% | cytotoxicity as a percentage of survived cells (CVI-P cells; [6]): 88,19% | cytotoxicity as a percentage of survived cells (CVI-P cells; [7]): 48,08%

SMILES: CCCCCCCCCCCCCCCCOC(=O)C1=C(C[n+]2ccccc2)NC(C[n+]2ccccc2)=C(C(=O)OCCCCCCCCCCCCCCCC)C1c1ccccc1.[Br-].[Br-] [XXV, 1,1′-[(3,5-Dihexadecyloxycarbonyl-4-phenyl-1,4-dihydropyridine-2,6-diyl)dimethylene]bispyridinium dibromide]
transfection efficiency [1, 3]: 0,23 β-galactosidase units per well | transfection efficiency [1, 4]: 0,24 β-galactosidase units per well | transfection efficiency [1, 5]: 17,5 β-galactosidase units per well | transfection efficiency [1, 6]: 15,15 β-galactosidase units per well | transfection efficiency [1, 7]: 9,04 β-galactosidase units per well | transfection efficiency [2, 3]: 0,57 β-galactosidase units per well | transfection efficiency [2, 4]: 0,31 β-galactosidase units per well | transfection efficiency [2, 5]: 066 β-galactosidase units per well | transfection efficiency [2, 6]: 2,05 β-galactosidase units per well | transfection efficiency [2, 7]: 2,47 β-galactosidase units per well | cytotoxicity as a percentage of survived cells (D 407 cells; [3]): 97,52% | cytotoxicity as a percentage of survived cells (D 407 cells; [4]): 97,73% | cytotoxicity as a percentage of survived cells (D 407 cells; [5]): 101,48% | cytotoxicity as a percentage of survived cells (D 407 cells; [6]): 89,12% | cytotoxicity as a percentage of survived cells (D 407 cells; [7]): 62,05% | complexation, percentage of the maximum fluorescence signal when EtBr bound to DNA in the absence of an amphiphile (plasmid DNA; [3]): 94,16% | complexation, percentage of the maximum fluorescence signal when EtBr bound to DNA in the absence of an amphiphile (plasmid DNA; [4]): 89,06% | complexation, percentage of the maximum fluorescence signal when EtBr bound to DNA in the absence of an amphiphile (plasmid DNA; [5]): 83,1% | complexation, percentage of the maximum fluorescence signal when EtBr bound to DNA in the absence of an amphiphile (plasmid DNA; [6]): 77,14% | complexation, percentage of the maximum fluorescence signal when EtBr bound to DNA in the absence of an amphiphile (plasmid DNA; [7]): 71,37% | cytotoxicity as a percentage of survived cells (CVI-P cells; [3]): 92,82% | cytotoxicity as a percentage of survived cells (CVI-P cells; [4]): 99,29% | cytotoxicity as a percentage of survived cells (CVI-P cells; [5]): 101,03% | cytotoxicity as a percentage of survived cells (CVI-P cells; [6]): 107,03% | cytotoxicity as a percentage of survived cells (CVI-P cells; [7]): 100,65%

Next, values leading:

melting point: 135 to 138 °C
SMILES: Br.CCCOCCOC(=O)C1=C(C)NC(C)=C(C(=O)OCCOCCC)C1c1ccc[n+](CC(=O)c2ccccc2)c1.[Br-]

melting point: 211 to 216 °C
SMILES: Br.CCOC(=O)C1=C(C)NC(C)=C(C(=O)OCC)C1c1cc[n+](CC(=O)c2ccc3ccccc3c2)cc1.[Br-]

melting point: 134 to 136 °C
SMILES: Br.CCOC(=O)C1=C(C)NC(C)=C(C(=O)OCC)C1c1ccc[n+](CCCCCCCCCCC(=O)O)c1.[Br-]

melting point: 152 to 156 °C
SMILES: Br.CCOC(=O)C1=C(C)NC(C)=C(C(=O)OCC)C1c1ccc[n+](CCCCCCCCCCCC(=O)O)c1.[Br-]

melting point: 212 to 213 °C (dec.)
SMILES: Br.CCOC(=O)C1=C(C)NC(C)=C(C(=O)OCC)C1c1ccc[n+](Cc2ccc([N+](=O)[O-])cc2)c1.[Br-]

melting point: 144 to 146 °C
SMILES: Br.CCCOCCOC(=O)C1=C(C)NC(C)=C(C(=O)OCCOCCC)C1c1ccc[n+](CC(=O)OCC)c1.[Br-]

melting point: 140 to 143 °C
SMILES: Br.CCOC(=O)C[n+]1ccc(C2C(C(=O)OCC)=C(C)NC(C)=C2C(=O)OCC)cc1.[Br-]
